Key:
[1] = tested on: Puccinia recondita f sp. tritici; experiment: Test F: wheat leaf rust, preventive spray on wheat seedlings; conditions: 10 ppm; wheat leaf rust; 100 = 100% disease control, 0 = no control
Stagonospora nodorum = experiment: Test D: wheat glume blotch, preventive spray on wheat seedlings; conditions: 10 ppm; wheat glume blotch; 100 = 100% disease control, 0 = no control
[2] = tested on: Erysiphe graminis f sp. tritici; experiment: Test G: wheat powdery mildew, preventive spray on wheat seedlings; conditions: 10 ppm; wheat powdery mildew; 100 = 100% disease control, 0 = no control
Source text: General protocol for preparing test solutions for Tests A-G: the test compounds were first dissolved in acetone in an amount equal to 3% of the final volume and then suspended at the desired concentration (in ppm) in acetone and purified water (50/50 mix by volume) containing 250 ppm of the surfactant PEG400 (polyhydric alcohol esters). The resulting test suspensions were then used in Tests A-G. Compounds were sprayed at a concentration of 50 ppm (*) or 10 ppm to the point of run-off on the test plants, the equivalent of a rate of 200 g/ha or 40 g/ha, respectively.
The test solution was sprayed to the point of run-off on wheat seedlings. The following day the seedlings were inoculated with a spore dust of Erysiphe graminis f sp. tritici, (the causal agent of wheat powdery mildew) and incubated in a growth chamber at 20° C. for 8 days, after which time visual disease ratings were made.
Compounds with an asterisks (*) were applied at a concentration of 50 ppm, otherwise test solutions were applied at 10 ppm.

Botrytis cinerea = experiment: Test B: gray mold, preventive spray on tomato seedlings; conditions: 10 ppm; gray mold on tomato; 100 = 100% disease control, 0 = no control
Zymoseptoria tritici = experiment: Test E: wheat leaf blotch, preventive spray on wheat seedlings; conditions: 10 ppm; wheat leaf blotch; 100 = 100% disease control, 0 = no control

| SMILES | Test F rating (% disease control) [1] | Test D rating (% disease control) (Stagonospora nodorum) | Test G rating (% disease control) [2] | Test B rating (% disease control) (Botrytis cinerea) | Test E rating (% disease control) (Zymoseptoria tritici) |
| --- | --- | --- | --- | --- | --- |
| OC(Cn1cncn1)(C1=NOC(COc2ccc3c(c2)OCO3)C1)c1ccc(Cl)cc1 (single isomer, unassigned) [Compound 43] | 100% | 38% | 98% | 31% | 0% |
| OC(Cn1cncn1)(C1=NOC(COc2ccc3c(c2)OCO3)C1)c1ccc(Cl)cc1 (single isomer, unassigned) [Compound 44] | 0% | 28% | 64% | 0% | 2% |
| CC(C)(C)C(O)(Cn1cncn1)C1=NOC(COc2ccc3c(c2)OCO3)C1 (single isomer, unassigned) [Compound 45] | 67% | 99% | 87% | 70% | 0% |
| CC(C)(C)C(O)(Cn1cncn1)C1=NOC(COc2ccc3c(c2)OCO3)C1 (single isomer, unassigned) [Compound 46] | 85% | 76% | 73% | 19% | 0% |
| Cn1nc(C(F)(F)F)cc1OCC1CC(C(O)(Cn2cncn2)C(C)(C)C)=NO1 (single isomer, unassigned) [Compound 47] | 76% | 0% | 84% | 19% | 3% |
| CC(C)(C)C(O)(Cn1cncn1)C1=NOC(Cn2ccc(C(F)(F)F)n2)C1 (single isomer, unassigned) [Compound 48] | 99% | 94% | 99% | 0% | 0% |
| CC(C)(C)C(O)(Cn1cncn1)C1=NOC(Cn2ccc(C(F)(F)F)n2)C1 (single isomer, unassigned) [Compound 49] | 99% | 82% | 99% | 11% | 0% |
| OC(Cn1cncn1)(C1=NOC(CSc2ccccc2)C1)c1ccc(Cl)cc1 (single isomer, unassigned) [Compound 50] | 99% | 87% | 94% | 19% | 3% |
| OC(Cn1cncn1)(C1=NOC(CSc2ccccc2)C1)c1ccc(Cl)cc1 (single isomer, unassigned) [Compound 51] | 0% | 89% | 81% | 16% | 1% |
| CC(C)(C)C(O)(Cn1cncn1)C1=NOC(Cc2ccc(Br)cc2)C1 (single isomer, unassigned) [Compound 52] | 100% | 100% | 100% | 98% | 4% |
| CC(C)(C)C(O)(Cn1cncn1)C1=NOC(Cc2ccc(Br)cc2)C1 (single isomer, unassigned) [Compound 53] | 100% | 99% | 99% | 70% | 20% |
| OC(Cn1cncn1)(C1=NOC(Cc2ccc(Br)cc2)C1)c1ccc(Cl)cc1 (single isomer, unassigned) [Compound 54] | 100% | 87% | 99% | 0% | 0% |
| OC(Cn1cncn1)(C1=NOC(Cc2ccc(Br)cc2)C1)c1ccc(Cl)cc1 (single isomer, unassigned) [Compound 55] | 99% | 73% | 99% | 0% | 2% |
| Cn1nc(C(F)(F)F)cc1OCC1CC(C(O)(Cn2cncn2)C(C)(C)C)=NO1 (single isomer, unassigned) [Compound 56] | 97% | 20% | 94% | 0% | 0% |
| OC(Cn1cncn1)(C1=NOC(COCc2ccccc2)C1)c1ccc(Cl)cc1 (single isomer, unassigned) [Compound 57] | 97% | 0% | 97% | 0% | 0% |
| OC(Cn1cncn1)(C1=NOC(COCc2ccccc2)C1)c1ccc(Cl)cc1 (single isomer, unassigned) [Compound 58] | 0% | 0% | 68% | 0% | 0% |
| CC(C)(C)C(O)(Cn1cncn1)C1=NOC(COCc2ccccc2)C1 (single isomer, unassigned) [Compound 59] | 80% | 92% | 89% | 0% | 2% |
| CC(C)(C)C(O)(Cn1cncn1)C1=NOC(COCc2ccccc2)C1 (single isomer, unassigned) [Compound 60] | 28% | 73% | 90% | 0% | 3% |
| OC(Cn1cncn1)(C1=NOC(COc2ccc(OCc3ccccc3)cc2)C1)c1ccc(Cl)cc1 (single isomer, unassigned) [Compound 69] | 100% | 38% | 94% | 27% | 25% |
| OC(Cn1cncn1)(C1=NOC(COc2ccc(OCc3ccccc3)cc2)C1)c1ccc(Cl)cc1 (single isomer, unassigned) [Compound 70] | 9% | 47% | 76% | 28% | 0% |
| CC(C)(C)C(O)(Cn1cncn1)C1=NOC(COc2ccc(OCc3ccccc3)cc2)C1 (single isomer, unassigned) [Compound 71] | 26% | 0% | 94% | 0% | 1% |
| CC(C)(C)C(O)(Cn1cncn1)C1=NOC(COc2ccc(OCc3ccccc3)cc2)C1 (single isomer, unassigned) [Compound 72] | 0% | 0% | 56% | 19% | 0% |
| CC(C)(C)C(O)(Cn1cncn1)C1=NOC(CSc2ccccc2)C1 (single isomer, unassigned) [Compound 73] | 9% | 62% | 56% | 25% | 0% |
| CC(C)(C)C(O)(Cn1cncn1)C1=NOC(CSc2ccccc2)C1 (single isomer, unassigned) [Compound 74] | 0% | 0% | 56% | 44% | 13% |
| CC(C)(C)CC1CC(C(O)(Cn2cncn2)c2ccc(Cl)cc2)=NO1 (single isomer, unassigned) [Compound 75] | 90% | 58% | 97% | 0% | 0% |
| CC(C)(C)CC1CC(C(O)(Cn2cncn2)c2ccc(Cl)cc2)=NO1 (single isomer, unassigned) [Compound 76] | 0% | 0% | 89% | 0% | 0% |
| CC(C)(C)CC1CC(C(O)(Cn2cncn2)C(C)(C)C)=NO1 (single isomer, unassigned) [Compound 77] | 0% | 0% | 13% | 0% | 0% |
| CC(C)(C)CC1CC(C(O)(Cn2cncn2)C(C)(C)C)=NO1 (single isomer, unassigned) [Compound 78] | 0% | 0% | 0% | 0% | 0% |
| CC(C)(C)C(O)(Cn1cncn1)C1=NOC(COc2ccc(F)cc2)C1 (single isomer, unassigned) [Compound 79] | 100% | 100% | 99% | 97% | 21% |
